Experimental data published in patent US8398970B2, “Method of preventing early Lawsonia intracellularis infections” (priority 2007, dated 2013).

Test system: Lawsonia intracellularis
Test: Embedded early vaccination field study: performance of weaned piglets during the rearing period
Format: in vivo
Procedure: The study was carried out in a unit in North Rhine Westphalia with 160 sows and 600 breeding stalls, producing to a weekly cycle with four weeks' suckling. The piglets are sold on for fattening once they reach about 30 kg.
The unit was chosen because clinical ileitis occurred in the rearing quarters of the unit if the animals were not treated with an antibiotic effective against Lawsonia intracellularis for 10 days from the weaning time onwards. More detailed diagnosis found. Lawsonia intracellularis in the faeces of the clinically sick animals and other diarrhea-causing pathogens were ruled out.
Within the course of the study all the piglets were weighed on removal from the sows and individually marked with progressive numbering using an ear tag. A blood sample was taken from each of 15 piglets in each group of weaned animals on the day of removal from the sow and this blood was tested for antibodies to Lawsonia intracellularis. The weaned piglets were put into pens in groups of 10 animals. Four days after weaning every second group of weaned animals was vaccinated with Enterisol® Ileitis (Boehringer Ingelheim) in accordance with the manufacturer's instructions through the drinking water in their trough. The other groups remained unvaccinated. After 3 days without antibiotics following the ileitis vaccination, the piglets of all the weaned groups were subjected to tylosin therapy (10 mg/kg KGW Tylae G 25, Elanco Animal Health) for 18 days starting from the 8th day after weaning. The unvaccinated weaned piglets were also treated with tylosin in the same dosage for 18 days starting from the 8th day after weaning.
On the day of release from their pens, all the piglets were again weighed individually. In addition, blood samples were taken from 10 piglets in each market batch, and the samples were examined for antibodies to Lawsonia intracellularis using ELISA. All the study groups were subjected to identical care and feed conditions. The study encompasses a total of 891 piglets. The absolute weight gain and daily increase in growth were calculated from the weights on removal from the sows and release from the pens. The rearing period was ascertained using the weaning date and date of sale.

With `CC[C@H]1OC(=O)C[C@@H](O)[C@H](C)[C@@H](O[C@@H]2O[C@H](C)[C@@H](O[C@H]3C[C@@](C)(O)[C@@H](O)[C@H](C)O3)[C@H](N(C)C)[C@H]2O)[C@@H](CC=O)C[C@@H](C)C(=O)/C=C/C(C)=C/[C@@H]1CO[C@@H]1O[C@H](C)[C@@H](O)[C@@H](OC)[C@H]1OC` [tylosin] as the compound, how does the rearing period (average, weaning date to date of sale) read?
Its rearing period is 52.9 days.

And the “breeding pens blocked longer than pens containing vaccinated groups” value (difference in maximum rearing period)?
The value was 17 days.

And the “average gain per day” value (during rearing period)?
Its value is 404 g per day.

What about the Max. growth period (maximum rearing period) of the same compound?
Its Max. growth period is 96 days.

What about the daily increase (mean daily weight gain during rearing period) of the same compound?
Its daily increase is 404 g.

And the sale weight (mean weight at end of rearing period)?
The sale weight was 29.26 kg.

And the Min. growth period (shortest time after which a piglet was sent on for fattening)?
Its Min. growth period is 31 days.
